Patent US20250302913A1, “LACRIPEP PROMOTES NEUROREGENERATION AND MAINTAINS EPITHELIAL PROGENITOR CELL IDENTITY” (The Regents of The University of California, priority 2022, published 2025)

Legend:
[1] = test system: Rest, Isl1, Rreb1 regulons; experiment: iRegulon transcription factor-gene target regulatory network analysis; design: species or system mouse; details: day 7; lacripep vs PBS; NES>3
From the text: To identify candidate transcription factors that regulate these gene sets, we performed transcription factor (TF)-gene target regulatory network analysis using iRegulon (37). iRegulon identifies transcription factor-binding motifs that are enriched in the genomic regions of a query gene set and predicts transcription factors that bind to them. […] ISL1 plays an essential role in the generation of sensory and sympathetic neurons (38 39), REST is a master regulator of neurogenesis that plays a role in modulating synaptic plasticity (40-42) and RREB1 regulates axon injury (43). […] The Isl1 exclusive gene set was also extensively enriched in genes involved with functional and structural nerve-mediated processes including visual perception (P=3.5E-27, e.g., Capb4, Vsx1), response to stimulus (P=9.7E-19; e.g., Slc17a7, Ush2a), synapse (P=9.4E-8, e.g. Magi2, Synpr) and neuron projection (P=6.4E-6, e.g., Cdh23, Kif1a) (FIG. 4F).
To identify regulatory networks underlying the impact of lacripep on tissue regeneration, we used the cytoscape application iRegulon (37) to predict master regulators, i.e., transcription factors whose regulons (transcriptional target sets) are highly enriched with the input gene list.

Aire KO mice = experiment: Pilocarpine-stimulated (maximal) tear secretion in Aire KO mice; type: in vivo, mouse; details: between Aire KO treatment conditions; 4.5 mg/kg pilocarpine i.p.
From the text: (§1) We next tested whether lacripep restored basal cell identity and barrier function by reducing immune cell infiltration. Prolonged desiccating stress from reduced tear production elicits an immune response in which activated CD4+ T cells home to the corneal epithelium and stroma (primarily accumulating at the limbal region) to modulate epithelial differentiation (17) and direct the development of autoimmune mediated dry eye (18).
Aire KO female mice aged 5 weeks were used for the study. All mice were topically treated with 5 μL per eye of 4 μM lacripep. Dosing was three times daily for 14 consecutive days. Lissamine green staining assessment and tear secretion assays were performed on each eye before treatment at baseline, 7 days and 14 days post treatment
Mice were anesthetized with isoflurane and basal tear secretion was then measured using a Zone-Quick phenol red thread (as indicated by the length of the tear-absorbed region in 15 seconds). Stimulated tear secretion was measured after 4.5 mg/kg of pilocarpine diluted in saline was injected into the peritoneum (i.p.). Ten minutes later, mice were anesthetized with isoflurane and tear secretion was measured using a Zone-Quick phenol red thread (Showa Yakuhin Kako Co. Ltd., Tokyo, Japan).

[2] = test system: intraepithelial sensory nerve terminals; experiment: Intraepithelial sensory nerve terminals by 3D imaging (IMARIS); type: in vivo, mouse; details: day 7
From the text: We next determined the extent of functional reinnervation of the cornea at day 7 by assessing the distribution of sensory nerve endings (nerve terminals) within the epithelial layers in lacripep-treated Aire KO corneas compared to WT and PBS KO controls (FIG. 3D). Sensory nerve terminals within the corneal epithelium respond to changes in the thickness and stability of the tear film to promote basal tear secretion, while also triggering epithelial responses to restore homeostasis through the release of neurotransmitters. […]
Quantification of corneal epithelial nerve density and synapses. Tissue sections: TUBB3+ nerve density within 300 μm sections of central cornea epithelial ROI was quantified by applying Tsai's thresholding method (Moments), with integrated densities within the ROI of the thresholded image being recorded. Corneal whole mounts: The density of nerves expressing GAP43, TUBB3, or GAP43 and TUBB3 (% Area of 354 μm×396 μm) was quantified from central cornea images of whole mount cornea and plotted in a stacked bar graph to visualize the proportion of each of the three nerve types. Similarly, numbers of synapses marked by expression of GAP43, TUBB3, or GAP43 and TUBB3 were counted per respective region of central cornea (100 μm2) and plotted in a stacked bar graph. […]
3D reconstruction of nerve fibers. […] Touching nuclei were split by the calculated seed points inside each area.

CD4+ T cells = experiment: CD4+ T cell infiltration of cornea and lacrimal gland; type: in vivo, mouse; details: day 15
From the text: as §1
For immunofluorescent analysis, 7 or 20 μm tissue sections were incubated with the following primary antibodies: mouse anti-ZO1 conjugated to Alexa594 (1:1000, Life Technologies, Cat 339194), rabbit anti-KRT6A (1:800, Cell Signaling, Cat 4912S), chicken anti-KRT14 (1:1500, Santa Cruz, Cat 515882), rat anti-Ki67 (1:200, Biolegend, 652405), rat anti-CD4 (1:200, Santa Cruz), rabbit anti-TUBB3 (1:500, Cell Signaling, Cat 5568S), and rat anti-Ecadherin (1:300, Life Technologies, Cat 131900). Antibodies were detected using Cy2-, Cy3- or Cy5-conjugated secondary Fab fragment antibodies (Jackson Laboratories), and nuclei were stained with Hoechst 33342 (1:3000, Sigma-Aldrich). Fluorescence was analyzed using a Zeiss LSM 900 confocal microscope or Zeiss Yokogawa Spinning disk confocal microscope with images assessed using NIH ImageJ software, as described below.
Quantification of CD4+ T cells in cornea and Lacrimal gland. […]

## Ac-KQFIENGSEFAQKLLKKFSLLKPWA-NH2 [lacripep, amino terminus acetylated, carboxyl terminus aminated]
[1]
  upregulated target genes of Isl1 regulon: 394 genes
  upregulated target genes of Rest regulon: 184 genes
  upregulated target genes of Rreb1 regulon: 254 genes
Aire KO mice
  maximal tear secretion in response to pilocarpine: no difference
[2]; PBS 5, WT 78
  intraepithelial sensory nerve terminals: 50 per 0.1 mm^2
[2]; compared to WT controls
  proportion of sensory nerve terminals expressing GAP43 as opposed to only TUBB3: increase
CD4+ T cells; Aire KO corneas regardless of treatment
  CD4+ T cell infiltration of cornea: extensively infiltrated by CD4+ T cells
CD4+ T cells; Aire KO lacrimal glands regardless of treatment
  CD4+ T cell infiltration of lacrimal glands: extensively infiltrated by CD4+ T cells
